# From paper PMC12788799, “Affinity-guided labeling reveals P2X7 nanoscale membrane redistribution during BV2 microglial activation” (eLife, 2026)
# Substitutions are numbered along the chain they refer to. pKd: −log10 of the molar value.
# Tests used:
# Assay type in all cases: cell-based
# mouse P2X7 [1] = target: T1, mouse P2X7 (Mus musculus, UniProt Q9Z1M0); assay: Competition:[…] blocks X7-uP labeling of endogenous P2X7 (pull-down western blot, confocal)
# T1 construct: gene P2rx7; endogenous P2X7 in BV2 cells
# T1 sequence (Q9Z1M0 1-595): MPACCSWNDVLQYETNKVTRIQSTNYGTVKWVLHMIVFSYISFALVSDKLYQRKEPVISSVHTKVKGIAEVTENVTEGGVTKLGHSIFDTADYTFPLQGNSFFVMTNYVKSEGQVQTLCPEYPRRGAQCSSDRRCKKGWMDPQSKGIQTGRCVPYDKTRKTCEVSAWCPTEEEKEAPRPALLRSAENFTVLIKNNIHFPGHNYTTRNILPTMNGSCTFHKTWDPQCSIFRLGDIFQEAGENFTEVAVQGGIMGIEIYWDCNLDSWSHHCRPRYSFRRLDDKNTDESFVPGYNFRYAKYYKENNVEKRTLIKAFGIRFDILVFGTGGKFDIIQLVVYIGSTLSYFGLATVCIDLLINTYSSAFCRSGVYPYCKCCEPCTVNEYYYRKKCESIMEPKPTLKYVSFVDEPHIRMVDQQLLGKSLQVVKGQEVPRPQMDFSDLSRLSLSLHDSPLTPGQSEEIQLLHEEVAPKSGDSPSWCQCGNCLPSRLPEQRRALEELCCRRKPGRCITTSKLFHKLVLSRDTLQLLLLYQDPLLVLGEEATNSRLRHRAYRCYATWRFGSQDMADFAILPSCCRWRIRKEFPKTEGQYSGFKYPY
# rat P2X7 (rP2X7) [2] = target: T2, rat P2X7 (rP2X7) (Rattus norvegicus, UniProt Q64663); assay: Whole-cell patch-clamp, inhibition of BzATP-evoked currents at […] in HEK293T cells; also blocks X7-uP labeling; design: gene P2rx7
# T2 sequence (Q64663 1-595): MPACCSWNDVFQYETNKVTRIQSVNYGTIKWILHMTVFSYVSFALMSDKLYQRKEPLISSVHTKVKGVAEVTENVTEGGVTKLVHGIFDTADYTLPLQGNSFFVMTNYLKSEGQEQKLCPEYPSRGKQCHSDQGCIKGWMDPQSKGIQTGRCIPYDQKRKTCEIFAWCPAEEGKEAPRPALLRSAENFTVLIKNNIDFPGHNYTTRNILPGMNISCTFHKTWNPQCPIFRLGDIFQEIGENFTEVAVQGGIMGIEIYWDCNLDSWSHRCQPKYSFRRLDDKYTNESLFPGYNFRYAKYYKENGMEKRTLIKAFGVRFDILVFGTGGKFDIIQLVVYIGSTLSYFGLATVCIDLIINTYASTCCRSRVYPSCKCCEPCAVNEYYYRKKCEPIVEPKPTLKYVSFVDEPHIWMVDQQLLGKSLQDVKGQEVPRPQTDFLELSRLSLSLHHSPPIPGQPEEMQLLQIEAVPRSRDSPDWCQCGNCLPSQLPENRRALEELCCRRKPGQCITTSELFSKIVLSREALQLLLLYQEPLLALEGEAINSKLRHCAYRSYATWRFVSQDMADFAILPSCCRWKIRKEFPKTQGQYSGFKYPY
# mouse P2X7 [3] = target: T1, mouse P2X7; assay: Covalent biotinylation of endogenous receptor with […] X7-uP, pull-down western blot and confocal imaging, blocked by AZ10606120 or A740003
# rat P2X7 (rP2X7) [4] = target: T3, rat P2X7 (rP2X7) (Rattus norvegicus, UniProt Q64663, K82A/K117A); assay: Whole-cell patch-clamp, reversible inhibition of BzATP-evoked currents by […] X7-uP in HEK293T cells
# T3 construct: gene P2rx7; P2X7-mScarlet background
# T3 sequence (Q64663 1-595 K82A/K117A): T2 sequence (Q64663 1-595) with K82A, K117A
# rat P2X7 (rP2X7) [5] = target: T2, rat P2X7 (rP2X7); assay: Kinetics of covalent biotinylation in HEK293T cells (pull-down western blot); whole-cell patch-clamp inhibition of BzATP currents; design: gene P2rx7; P2X7c-myc
Structure (SMILES),Competition: 10 μM blocks X7-uP labeling of endogenous P2X7 (pull-down western b) (mouse P2X7 [1]),inhibition at 1 µM (rat P2X7 (rP2X7) [2]),% labeled (mouse P2X7 [3]),"Whole-cell patch-clamp, reversible inhibition of BzATP-evoked currents by 0.5 μM (rat P2X7 (rP2X7) [4])",pKd (rat P2X7 (rP2X7) [5])
O=C(CC12CC3CC(CC(C3)C1)C2)Nc1cccc2nc(NCCNCCO)ccc12 [AZ10606120],This band disappeared upon co-incubation with AZ10606120 or A740003,99.7%,,,
"N#CCN(C(=O)CCOCCOCCOCCOCCNC(=O)CCCC[C@@H]1SC[C@@H]2NC(=O)N[C@@H]21)S(=O)(=O)c1ccc(C(=O)NCCNc2ccc3c(NC(=O)CC45CC6CC(CC(C6)C4)C5)cccc3n2)cc1 [X7-uP, N-(2-((5-(2-(adamantan-1-yl)acetamido)quinolin-2-yl)amino)ethyl)–4-(N-(cyanomethyl)-N-(17-oxo-21-((3aR,4R,6aS)–2-oxo-hexahydro-1H-thieno[3,4-d]imidazol-4-yl)–4,7,10,13-tetraoxa-16-azahenico-sanoyl)sulfamoyl)benzamide]",,,80 % labeled,the double K82A/K117A mutant did not affect the ability of X7-uP to inhibit BzATP-evoked currents,5.14
